From patent publication US11648254B2 (Kumquat Biosciences Inc., priority 2021, dated 2023)
Where two headings read alike, the source gives them in different places.

Tests used:
SOS1 = SOS1 (Homo sapiens (Human), UniProt Q07889); assay: Ras-SOS interaction assay (HTRF); format: biochemical
[1] = tested on: NCI-H1975 cells (EGFR T790M L858R); assay: EGFR-SOS cellular inhibition assay (CellTiter-Glo, 3D); format: cell-based; settings: Homo sapiens
[2] = tested on: ERK phosphorylation (p-ERK 1/2 Thr202/Tyr204) in MIA PaCa-2 or NCI-H1975 cells; assay: ERK phosphorylation assay (AlphaLISA p-ERK 1/2); format: cell-based; settings: MIA PaCa-2 cells or EGFR mutant NCI-H1975 cells; read-out: IC50 for the inhibition of ERK phosphorylation
Procedure: MIA PaCa-2 cells (ATCC CRL-1420) expressing K-Ras G12C is grown in DMEM/Ham's F12 medium supplemented with 10% fetal calf serum, glutamine and ˜2.5% horse serum. Alternatively, other cell lines with aberrant Ras signaling output can be utilized. Non-limiting exemplary cell lines include NCI-H358 and H1975. Cells are plated in 96-well plates at a concentration of 40,000 cells/well and allowed to attach for at least 8 hours. Following, diluted solutions of test inhibitor compounds are added to the cell culture. After ˜2 hours of incubation, the medium is removed and lysis buffer from AlphaLISA® SureFire® Ultra™ p-ERK 1/2 (Thr202/Tyr204) assay kit (Perkin Elmer ALSU-PERK-A10K) is added to the cells. The plate is agitated for 10 min at room temperature and 10 μL of the lysate is transferred to a 384-well Optiplate™ (Perkin Elmer) for assay. Thereafter ˜5 μL of Acceptor Mix from the p-ERK AlphaLISA assay kit is added to wells and plate is sealed with adhesive film. The samples are incubated for one hour at room temperature. Following, 5 μL of Donor Mix is added to the wells and plate is re-sealed with adhesive film, and incubated for one hour at room temperature. The plate is then read on a multimode microplate reader (e.g., SPARK©Tecan) equipped with Alpha detection module. The data can be fitted to four-parameter dose-response curve using Prism version 9 (GraphPad) to calculate an IC50 for the inhibition of ERK phosphorylation. […] 355, 332, 366, 216, 264, 356, 266, in an ERK phosphorylation assay utilizing either MIA PaCa-2 cells (ATCC CRL-1420) or EGFR mutant cell line (NCI-H1975 (ATCC CRL-5908)).

[3] = tested on: MIA PaCa-2 cells (K-Ras G12C); assay: Ras-SOS cellular growth inhibition assay (CellTiter-Glo, 3D); format: cell-based; settings: Homo sapiens
Procedure, shortened: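 Growth read by CellTiter-Glo luminescence about 5 days after dosing with 3-fold dilutions (9 points), added one day post-seeding. Cells: MIA PaCa-2, 3D culture on ultra-low-attachment surface, medium DMEM/Ham's F12 plus 10% FCS and 2.5% horse serum; IC50 by four-parameter fit.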

[4] = Metabolic (microsomal) stability assay; format: in vitro ADME; settings: mouse liver microsomes, T1/2; read-out: DMPK-invitro-metabolic Stability (Mouse T1/2)
Excerpt: Example 12: Metabolic (Microsomal) Stability Assay

[5] = In vitro plasma protein binding (PPB); format: in vitro ADME; settings: percentage of free/unbound compound
[6] = K-RasG13D utilized, read-out: IC50 inhibition of SOS
[7] = K-RasG13D, read-out: IC50 value against SOS1
[8] = 120 h, NCI-H1975, 3D proliferation, about 5 days, read-out: Bio-Cell-Prolif-3D (H1975 IC50)
[9] = NCI-H1975, EGFR T790M L858R, read-out: IC50 in inhibiting growth of NCI-H1975 cell line
[10] = MIA PaCa-2, 120 h, MIA PaCa-2, 3D proliferation, about 5 days, read-out: Bio-Cell-Prolif-3D (MiaPaca2 IC50)
[11] = MIA PaCa-2, MIA PaCa-2, read-out: IC50 in inhibiting MIA PaCa-2 cell growth

SOS1, sequence (Q07889 564-1049): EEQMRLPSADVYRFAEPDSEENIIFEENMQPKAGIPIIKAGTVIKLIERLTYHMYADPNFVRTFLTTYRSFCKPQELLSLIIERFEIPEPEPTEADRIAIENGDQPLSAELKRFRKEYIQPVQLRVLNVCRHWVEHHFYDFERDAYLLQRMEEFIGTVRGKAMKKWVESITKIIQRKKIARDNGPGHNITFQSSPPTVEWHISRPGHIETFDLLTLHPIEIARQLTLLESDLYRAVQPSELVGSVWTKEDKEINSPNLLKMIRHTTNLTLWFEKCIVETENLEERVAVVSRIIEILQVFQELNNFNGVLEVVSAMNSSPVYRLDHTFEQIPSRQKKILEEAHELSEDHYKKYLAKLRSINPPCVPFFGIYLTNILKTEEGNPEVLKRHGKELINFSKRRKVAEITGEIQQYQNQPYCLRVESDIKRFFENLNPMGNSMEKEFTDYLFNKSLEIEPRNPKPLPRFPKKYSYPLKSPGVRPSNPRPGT

| Structure (SMILES) | IC50 (SOS1; [6]) [nM] | IC50 (SOS1; [7]) [nM] | IC50 [1, 8] [nM] | IC50 [1, 9] [nM] | IC50 [2] [nM] | IC50 [3, 10] [nM] | IC50 [3, 11] [nM] | half-life [4] [min] | DMPK-invitro-PPB (Mouse Unbound) [%] [5] [%] |
| --- | --- | --- | --- | --- | --- | --- | --- | --- | --- |
| COc1nc2ncnc(N[C@H](C)c3cccc(C(F)(F)[C@@H](C)O)c3)c2cc1C1(C#N)CC1 [Compound 264, 1-(4-(((R)-1-(3-((R)-1,1-difluoro-2-hydroxypropyl)phenyl)ethyl)amino)-7-methoxypyrido[2,3-d]pyrimidin-6-yl)cyclopropane-1-carbonitrile] | < 100 | < 50 | ≤ 1000 | < 500 | < 1000 | ≤ 1000 | < 500 | 55.1 | 4.94 |
| COc1nc2ncnc(N[C@H](C)c3cccc(C(F)(F)[C@H](C)O)c3)c2cc1C1(C#N)CC1 [Compound 266, 1-(4-(((R)-1-(3-((S)-1,1-difluoro-2-hydroxypropyl)phenyl)ethyl)amino)-7-methoxypyrido[2,3-d]pyrimidin-6-yl)cyclopropane-1-carbonitrile] | < 100 | < 50 | ≤ 1000 | < 500 | < 1000 | ≤ 1000 | < 500 | – | – |
| Cc1nc(N[C@H](C)c2cccc(C(F)(F)F)c2F)c2cc(C3(C#N)CC3)c(Cl)nc2n1 [Compound 300, (R)-1-(7-chloro-4-((1-(2-fluoro-3-(trifluoromethyl)phenyl)ethyl)amino)-2-methylpyrido[2,3-d]pyrimidin-6-yl)cyclopropane-1-carbonitrile] | < 100 | – | ≤ 1000 | – | – | ≤ 1000 | – | 70.6 | 0.47 |
| C[C@@H](Nc1ncnc2nc(Cl)c(C3(C#N)CC3)cc12)c1cccc(C(F)(F)F)c1F [Compound 354, (R)-1-(7-chloro-4-((1-(2-fluoro-3-(trifluoromethyl)phenyl)ethyl)amino)pyrido[2,3-d]pyrimidin-6-yl)cyclopropane-1-carbonitrile] | < 100 | – | ≤ 1000 | < 500 | – | ≤ 1000 | < 500 | > 200 | 0.52 |
| COc1nc2ncnc(N[C@H](C)c3cccc(C(F)(F)C(C)(C)O)c3)c2cc1C1(C#N)CC1 [Compound 355, (R)-1-(4-((1-(3-(1,1-difluoro-2-hydroxy-2-methylpropyl)phenyl)ethyl)amino)-7-methoxypyrido[2,3-d]pyrimidin-6-yl)cyclopropane-1-carbonitrile] | < 100 | < 50 | ≤ 1000 | < 500 | < 1000 | ≤ 1000 | < 500 | > 200 | 0.89 |
| COc1nc2ncnc(N[C@H](C)c3cccc(C(F)(F)C(C)(C)O)c3F)c2cc1C1(C#N)CC1 [Compound 356, (R)-1-(4-((1-(3-(1,1-difluoro-2-hydroxy-2-methylpropyl)-2-fluorophenyl)ethyl)amino)-7-methoxypyrido[2,3-d]pyrimidin-6-yl)cyclopropane-1-carbonitrile] | < 100 | < 50 | ≤ 1000 | < 500 | < 1000 | ≤ 1000 | < 500 | > 200 | 0.48 |

More lines, now with the values ahead:

| IC50 (SOS1; [6]) [nM] | IC50 (SOS1; [7]) [nM] | IC50 [1, 8] [nM] | IC50 [1, 9] [nM] | IC50 [2] [nM] | IC50 [3, 10] [nM] | IC50 [3, 11] [nM] | half-life [4] [min] | DMPK-invitro-PPB (Mouse Unbound) [%] [5] [%] | Structure (SMILES) |
| --- | --- | --- | --- | --- | --- | --- | --- | --- | --- |
| < 100 | < 50 | ≤ 1000 | < 500 | < 1000 | ≤ 1000 | < 500 | – | – | COc1nc2nc(C)nc(N[C@H](C)c3cccc(C(F)(F)[C@H](C)O)c3)c2cc1C1(C#N)CC1 [Compound 216, 1-(4-(((R)-1-(3-((S)-1,1-difluoro-2-hydroxypropyl)phenyl)ethyl)amino)-7-methoxy-2-methylpyrido[2,3-d]pyrimidin-6-yl)cyclopropane-1-carbonitrile] |
| < 100 | < 50 | ≤ 1000 | < 500 | – | ≤ 1000 | < 500 | 131 | 2.34 | COc1nc2ncnc(N[C@H](C)c3cccc(C(F)(F)[C@H](C)O)c3F)c2cc1C1(C#N)CC1 [Compound 327, 1-(4-(((R)-1-(3-((S)-1,1-difluoro-2-hydroxypropyl)-2-fluorophenyl)ethyl)amino)-7-methoxypyrido[2,3-d]pyrimidin-6-yl)cyclopropane-1-carbonitrile] |
| < 100 | < 50 | ≤ 1000 | < 500 | – | ≤ 1000 | < 500 | 120 | 2.72 | COc1nc2ncnc(N[C@H](C)c3cccc(C(F)(F)[C@@H](C)O)c3F)c2cc1C1(C#N)CC1 [Compound 329, 1-(4-(((R)-1-(3-((R)-1,1-difluoro-2-hydroxypropyl)-2-fluorophenyl)ethyl)amino)-7-methoxypyrido[2,3-d]pyrimidin-6-yl)cyclopropane-1-carbonitrile] |
| < 100 | < 50 | ≤ 1000 | < 500 | < 1000 | ≤ 1000 | < 500 | 30.1 | 0.3 | COc1nc2nc(C)nc(N[C@H](C)c3cccc(C(F)(F)[C@@H](C)O)c3F)c2cc1C1(C#N)CC1 [Compound 332, 1-(4-(((R)-1-(3-((R)-1,1-difluoro-2-hydroxypropyl)-2-fluorophenyl)ethyl)amino)-7-methoxy-2-methylpyrido[2,3-d]pyrimidin-6-yl)cyclopropane-1-carbonitrile] |
| < 100 | < 50 | ≤ 1000 | < 500 | < 1000 | ≤ 1000 | < 500 | 25.7 | 1.32 | COc1nc2nc(C)nc(N[C@H](C)c3cccc(C(F)(F)[C@@H](C)O)c3)c2cc1C1(C#N)CC1 [Compound 366, 1-(4-(((R)-1-(3-((R)-1,1-difluoro-2-hydroxypropyl)phenyl)ethyl)amino)-7-methoxy-2-methylpyrido[2,3-d]pyrimidin-6-yl)cyclopropane-1-carbonitrile] |
